According to ChEMBL document CHEMBL5465560, “Selectivity Literature for EUbOPEN Chemogenomic Library” (2024):

How the values were obtained:
[1] = target: Serine/threonine-protein kinase PAK 2 (Homo sapiens) (UniProt Q13177); assay: Selectivity interaction (KinomeScan (DiscoverX)) EUB0000607a PAK2; details: at 10 µM
[2] = target: Ribosomal protein S6 kinase alpha-5 (Homo sapiens) (UniProt O75582); assay: Selectivity interaction (KinomeScan (DiscoverX)) EUB0000607a RPS6KA5; details: at 10 µM
[3] = target: T1, Serine/threonine-protein kinase D2 (Homo sapiens) (UniProt Q9BZL6); assay: Selectivity interaction (ActivX KiNativ screen (kinase selectivity in THP-1 cell lysates)) EUB0000639a PRKD2; format: subcellular; details: lysate, at 1 µM
T1 sequence (whole entry): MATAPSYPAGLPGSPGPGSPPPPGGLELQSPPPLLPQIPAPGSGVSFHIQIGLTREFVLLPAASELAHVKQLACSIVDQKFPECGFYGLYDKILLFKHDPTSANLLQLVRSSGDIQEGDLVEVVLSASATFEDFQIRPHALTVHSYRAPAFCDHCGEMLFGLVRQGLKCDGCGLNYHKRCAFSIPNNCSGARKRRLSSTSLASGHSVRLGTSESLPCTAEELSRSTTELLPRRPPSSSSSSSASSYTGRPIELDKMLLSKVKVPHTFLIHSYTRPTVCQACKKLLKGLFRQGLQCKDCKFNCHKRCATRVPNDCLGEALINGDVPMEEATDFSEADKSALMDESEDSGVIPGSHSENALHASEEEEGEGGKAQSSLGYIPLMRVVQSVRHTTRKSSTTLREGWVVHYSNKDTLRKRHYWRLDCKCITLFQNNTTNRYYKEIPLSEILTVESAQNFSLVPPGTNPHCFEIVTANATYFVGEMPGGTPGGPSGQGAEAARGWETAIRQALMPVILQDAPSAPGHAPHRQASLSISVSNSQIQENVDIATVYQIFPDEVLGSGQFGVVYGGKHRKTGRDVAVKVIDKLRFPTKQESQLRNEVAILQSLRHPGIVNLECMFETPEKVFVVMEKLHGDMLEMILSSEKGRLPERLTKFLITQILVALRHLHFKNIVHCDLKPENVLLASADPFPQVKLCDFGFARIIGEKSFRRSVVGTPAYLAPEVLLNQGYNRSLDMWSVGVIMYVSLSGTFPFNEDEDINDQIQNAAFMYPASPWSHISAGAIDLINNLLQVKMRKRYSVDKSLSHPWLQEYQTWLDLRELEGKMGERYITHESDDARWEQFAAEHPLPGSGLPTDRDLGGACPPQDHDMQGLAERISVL

[4] = tested on: Receptor-type tyrosine-protein kinase FLT3 (Homo sapiens), P36888 [UNDEFINED MUTATION]; assay: Selectivity interaction (KinomeScan (DiscoverX)) EUB0000695a FLT3; details: at 100 nM
Receptor-type tyrosine-protein kinase FLT3 (Homo sapiens), P36888 [UNDEFINED MUTATION], sequence (P36888 whole entry, looked up, change not shown): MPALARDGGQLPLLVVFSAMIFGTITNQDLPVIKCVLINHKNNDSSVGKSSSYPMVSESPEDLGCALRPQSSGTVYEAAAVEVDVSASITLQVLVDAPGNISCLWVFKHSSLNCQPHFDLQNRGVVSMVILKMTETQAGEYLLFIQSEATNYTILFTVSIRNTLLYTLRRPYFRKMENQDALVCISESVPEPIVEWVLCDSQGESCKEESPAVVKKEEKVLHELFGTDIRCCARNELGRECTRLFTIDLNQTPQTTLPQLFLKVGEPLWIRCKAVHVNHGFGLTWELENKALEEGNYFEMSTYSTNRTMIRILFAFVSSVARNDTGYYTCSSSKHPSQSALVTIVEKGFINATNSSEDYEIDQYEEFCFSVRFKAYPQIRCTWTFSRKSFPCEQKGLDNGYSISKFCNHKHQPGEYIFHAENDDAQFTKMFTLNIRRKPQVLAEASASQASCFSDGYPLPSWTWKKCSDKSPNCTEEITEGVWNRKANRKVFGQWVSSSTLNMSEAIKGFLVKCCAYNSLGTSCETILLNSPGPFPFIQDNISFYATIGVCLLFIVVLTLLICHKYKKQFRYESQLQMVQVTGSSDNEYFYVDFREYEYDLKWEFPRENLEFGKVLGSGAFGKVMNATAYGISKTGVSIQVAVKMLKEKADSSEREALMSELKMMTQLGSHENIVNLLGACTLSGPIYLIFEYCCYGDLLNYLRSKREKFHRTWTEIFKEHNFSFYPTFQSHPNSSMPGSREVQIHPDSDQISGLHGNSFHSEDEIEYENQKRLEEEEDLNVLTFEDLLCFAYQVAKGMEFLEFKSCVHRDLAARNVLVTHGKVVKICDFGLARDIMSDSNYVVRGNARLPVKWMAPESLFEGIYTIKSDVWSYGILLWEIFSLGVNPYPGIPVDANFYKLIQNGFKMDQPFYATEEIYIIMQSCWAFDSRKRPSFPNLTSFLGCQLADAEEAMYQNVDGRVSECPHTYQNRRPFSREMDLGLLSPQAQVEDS

[5] = target: Serine/threonine-protein kinase Nek7 (Homo sapiens) (UniProt Q8TDX7); assay: Selectivity interaction (Kinase panel (DSF assay)) EUB0001559a NEK7
Serine/threonine-protein kinase Nek7 (Homo sapiens), sequence (Q8TDX7 whole entry, looked up): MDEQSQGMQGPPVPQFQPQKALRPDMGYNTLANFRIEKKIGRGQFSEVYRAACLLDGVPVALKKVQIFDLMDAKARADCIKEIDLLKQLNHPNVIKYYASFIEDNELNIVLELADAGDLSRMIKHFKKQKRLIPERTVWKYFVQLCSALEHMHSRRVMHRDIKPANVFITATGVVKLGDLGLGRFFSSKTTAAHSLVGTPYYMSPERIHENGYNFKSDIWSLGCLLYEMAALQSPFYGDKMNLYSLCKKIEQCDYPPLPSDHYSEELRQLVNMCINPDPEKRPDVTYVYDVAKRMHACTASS

[6] = target: T2, Mitogen-activated protein kinase kinase kinase 13 (Homo sapiens) (UniProt O43283); assay: Selectivity interaction (KinomeScan (DiscoverX)) EUB0001049a MAP3K13; details: at 1 µM
T2 sequence (whole entry): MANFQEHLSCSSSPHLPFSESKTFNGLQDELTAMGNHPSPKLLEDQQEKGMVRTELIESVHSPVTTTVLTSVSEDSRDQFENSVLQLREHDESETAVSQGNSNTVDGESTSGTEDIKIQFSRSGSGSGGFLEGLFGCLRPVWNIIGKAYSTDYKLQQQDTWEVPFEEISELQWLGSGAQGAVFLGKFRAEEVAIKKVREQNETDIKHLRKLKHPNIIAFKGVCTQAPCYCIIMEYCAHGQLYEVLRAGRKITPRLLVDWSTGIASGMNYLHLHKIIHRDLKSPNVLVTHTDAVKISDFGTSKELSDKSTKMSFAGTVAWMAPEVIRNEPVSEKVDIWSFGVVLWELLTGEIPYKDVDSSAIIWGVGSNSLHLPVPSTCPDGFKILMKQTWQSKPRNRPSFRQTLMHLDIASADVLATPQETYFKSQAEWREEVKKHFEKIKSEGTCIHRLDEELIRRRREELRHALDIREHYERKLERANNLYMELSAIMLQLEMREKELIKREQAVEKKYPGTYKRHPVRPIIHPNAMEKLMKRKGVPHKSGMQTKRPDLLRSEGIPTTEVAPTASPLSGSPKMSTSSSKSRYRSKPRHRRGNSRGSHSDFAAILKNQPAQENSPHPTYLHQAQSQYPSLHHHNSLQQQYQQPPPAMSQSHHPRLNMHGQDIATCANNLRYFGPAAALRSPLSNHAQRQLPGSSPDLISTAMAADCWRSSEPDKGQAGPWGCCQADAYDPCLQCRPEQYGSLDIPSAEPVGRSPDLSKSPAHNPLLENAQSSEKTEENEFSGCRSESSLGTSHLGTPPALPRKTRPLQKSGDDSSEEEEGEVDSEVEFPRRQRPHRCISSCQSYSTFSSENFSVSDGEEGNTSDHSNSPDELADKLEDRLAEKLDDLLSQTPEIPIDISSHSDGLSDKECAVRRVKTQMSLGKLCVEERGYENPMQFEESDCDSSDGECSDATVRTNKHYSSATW

[7] = target: Activated CDC42 kinase 1 (Homo sapiens, UniProt Q07912); assay: Selectivity interaction (Ambit KINOMEscan and KiNATiv profiling in Jurkat cells) EUB0000090b TNK2; format: cell-based; details: at 1 µM
Activated CDC42 kinase 1, sequence (Q07912 whole entry, looked up): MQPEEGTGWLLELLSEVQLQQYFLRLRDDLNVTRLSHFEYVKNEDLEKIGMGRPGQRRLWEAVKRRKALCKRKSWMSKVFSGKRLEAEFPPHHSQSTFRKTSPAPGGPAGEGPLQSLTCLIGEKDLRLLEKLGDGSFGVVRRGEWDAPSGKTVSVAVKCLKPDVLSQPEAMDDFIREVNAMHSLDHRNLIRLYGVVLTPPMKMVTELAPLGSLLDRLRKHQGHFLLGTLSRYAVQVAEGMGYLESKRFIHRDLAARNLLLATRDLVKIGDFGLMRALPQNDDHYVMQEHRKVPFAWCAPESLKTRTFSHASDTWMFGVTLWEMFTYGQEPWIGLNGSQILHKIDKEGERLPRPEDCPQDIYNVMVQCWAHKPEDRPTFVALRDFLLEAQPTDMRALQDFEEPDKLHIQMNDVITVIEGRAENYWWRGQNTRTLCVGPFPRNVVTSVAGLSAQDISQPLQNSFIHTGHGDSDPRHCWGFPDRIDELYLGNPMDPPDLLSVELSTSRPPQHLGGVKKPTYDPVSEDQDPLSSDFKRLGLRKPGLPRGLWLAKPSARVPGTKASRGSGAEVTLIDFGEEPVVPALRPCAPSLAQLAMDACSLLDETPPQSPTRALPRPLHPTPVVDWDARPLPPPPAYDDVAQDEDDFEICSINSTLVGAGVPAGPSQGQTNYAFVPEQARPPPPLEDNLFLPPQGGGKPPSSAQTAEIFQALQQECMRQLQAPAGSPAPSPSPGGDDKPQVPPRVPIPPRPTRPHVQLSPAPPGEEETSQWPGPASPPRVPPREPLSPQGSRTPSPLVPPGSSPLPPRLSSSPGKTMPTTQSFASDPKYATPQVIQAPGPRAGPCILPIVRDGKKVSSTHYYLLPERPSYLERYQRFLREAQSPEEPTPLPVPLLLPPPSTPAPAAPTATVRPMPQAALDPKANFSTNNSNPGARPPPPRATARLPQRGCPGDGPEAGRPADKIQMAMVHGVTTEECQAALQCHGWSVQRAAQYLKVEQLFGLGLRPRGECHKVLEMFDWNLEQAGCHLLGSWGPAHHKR

Serine/threonine-protein kinase PAK 2 (Homo sapiens), sequence (Q13177 whole entry): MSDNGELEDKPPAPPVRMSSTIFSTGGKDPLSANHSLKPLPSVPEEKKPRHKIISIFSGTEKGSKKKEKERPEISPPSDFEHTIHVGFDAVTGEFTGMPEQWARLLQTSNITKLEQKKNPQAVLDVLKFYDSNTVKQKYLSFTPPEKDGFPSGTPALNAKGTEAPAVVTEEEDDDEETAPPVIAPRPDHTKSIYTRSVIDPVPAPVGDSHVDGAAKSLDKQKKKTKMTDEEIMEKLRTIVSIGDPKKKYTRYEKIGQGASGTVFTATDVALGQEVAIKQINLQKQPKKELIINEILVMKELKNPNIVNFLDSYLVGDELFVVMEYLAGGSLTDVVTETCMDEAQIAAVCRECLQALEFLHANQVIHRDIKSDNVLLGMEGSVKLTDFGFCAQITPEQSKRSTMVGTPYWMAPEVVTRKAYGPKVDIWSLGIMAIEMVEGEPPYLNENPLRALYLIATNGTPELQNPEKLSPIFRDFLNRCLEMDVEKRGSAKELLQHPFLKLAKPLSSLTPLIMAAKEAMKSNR
Ribosomal protein S6 kinase alpha-5 (Homo sapiens), sequence (O75582 whole entry, looked up): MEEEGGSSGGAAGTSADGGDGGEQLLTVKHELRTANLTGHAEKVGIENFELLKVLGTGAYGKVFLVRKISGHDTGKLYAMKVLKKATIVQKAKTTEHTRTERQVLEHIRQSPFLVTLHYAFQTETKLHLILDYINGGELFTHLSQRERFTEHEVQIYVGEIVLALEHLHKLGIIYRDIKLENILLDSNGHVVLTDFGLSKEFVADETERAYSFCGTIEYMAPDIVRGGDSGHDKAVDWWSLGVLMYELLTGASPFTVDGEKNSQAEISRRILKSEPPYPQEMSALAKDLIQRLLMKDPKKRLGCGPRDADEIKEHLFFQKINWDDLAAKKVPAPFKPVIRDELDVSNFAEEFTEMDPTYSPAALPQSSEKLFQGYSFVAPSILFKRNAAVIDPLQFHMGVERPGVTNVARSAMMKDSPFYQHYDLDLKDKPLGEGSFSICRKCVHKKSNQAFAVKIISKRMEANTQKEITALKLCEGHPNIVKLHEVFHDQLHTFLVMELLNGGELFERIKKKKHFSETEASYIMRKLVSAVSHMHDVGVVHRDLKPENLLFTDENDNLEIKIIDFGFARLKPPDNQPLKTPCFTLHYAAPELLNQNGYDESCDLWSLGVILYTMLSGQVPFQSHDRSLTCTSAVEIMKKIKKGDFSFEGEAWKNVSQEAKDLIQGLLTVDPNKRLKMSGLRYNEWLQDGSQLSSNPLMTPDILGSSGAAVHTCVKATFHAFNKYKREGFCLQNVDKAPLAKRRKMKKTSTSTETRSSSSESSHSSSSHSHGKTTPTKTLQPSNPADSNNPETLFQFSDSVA

**Q.** For `CNC(=O)Nc1ccc(-c2nc(N3CC4CCC(C3)O4)c3cnn(C4CCC5(CC4)OCCO5)c3n2)cc1`, which % of control [1] is on record?
**A.** 99%

**Q.** What about the % of control [2] of the same compound?
**A.** 86%

**Q.** For `CC[C@@H]1[C@H](F)C(=O)N[C@@H]1COc1nccc2cc(C(N)=O)c(OC)cc12` [ZIMLOVISERTIB], which % of inhibition [3] is on record?
**A.** 8%

**Q.** Which % of control [4] does the source give for `Cc1cc(F)c(C(=O)Nc2cccc(-c3nncn3C(C)C)n2)cc1-n1cnc(C2CC2)c1` here?
**A.** 76%

**Q.** `CN(C(=O)c1cnn2cccnc12)c1cc2c(cc1N1CCOCC1)C(=O)N(C[C@@H](F)C(C)(C)O)C2` was tested. Which dTM [5] did it give?
**A.** 0.5 K

**Q.** With `COc1cc(Nc2nc(C)cc(-c3cnn4nc(OC)ccc34)n2)cc(C(F)(F)F)c1` as the compound, how does the % of control [6] read?
**A.** 95%

**Q.** Which % of control [7] does the source give for `CN(C)C/C=C/C(=O)Nc1ccc(C(=O)N2CCCC(Nc3ncc(Cl)c(-c4c[nH]c5ccccc45)n3)C2)cc1` (configuration not stated) here?
**A.** 99%
